# Numbered stars: 1 amine (or outer) side, 2 acyl side, 3 side chain; on linkers, the order of the positions; unused ones are H or OH. Bridge positions count the residues as written; N and C are the ends. Square brackets hold non-standard residues; d marks the D form. Peptide text beside a SMILES is read from it. * marks the point of attachment. hPhe(3,5-F2-4-CF3) = N[C@@H](CCc1cc(F)c(C(F)(F)F)c(F)c1)C(=O)O; hPhe(3-Cl-4-CF3) = N[C@@H](CCc1ccc(C(F)(F)F)c(Cl)c1)C(=O)O; hPhe(3-F,4-CF3) = N[C@@H](CCc1ccc(C(F)(F)F)c(F)c1)C(=O)O; NEtPhe(4-CF3) = CCN[C@@H](Cc1ccc(C(F)(F)F)cc1)C(=O)O; NMePhe(4-CF3) = CN[C@@H](Cc1ccc(C(F)(F)F)cc1)C(=O)O; hPhe(4-CF3) = N[C@@H](CCc1ccc(C(F)(F)F)cc1)C(=O)O; NMePhe(4-Cl) = CN[C@@H](Cc1ccc(Cl)cc1)C(=O)O; NMePhe(4-Me) = CN[C@@H](Cc1ccc(C)cc1)C(=O)O; hPhe(4-Cl) = N[C@@H](CCc1ccc(Cl)cc1)C(=O)O; NMedβ3hAla = C[C@H](CC(=O)[*:2])N(C)[*:1]; hPhe(4-F) = N[C@@H](CCc1ccc(F)cc1)C(=O)O; NMeGly(cPent) = CN[C@H](C(=O)O)C1CCCC1; Pro(4,4-F2) = O=C(O)[C@@H]1CC(F)(F)CN1; NMeCha = CN[C@@H](CC1CCCCC1)C(=O)O; Gly(N-(CH2)2OEt) = CCOCCNCC(=O)O; NMeChg = CN[C@H](C(=O)O)C1CCCCC1; NMeI = CC[C@H](C)[C@H](NC)C(=O)O; NMeβAla = CN(CCC(=O)[*:2])[*:1]; NMeD = CN[C@@H](CC(=O)O)C(=O)O; NMeL = CN[C@@H](CC(C)C)C(=O)O; NMeV = CN[C@H](C(=O)O)C(C)C; d(β3hA) = C[C@@H](N)CC(=O)O; NMeS = CN[C@@H](CO)C(=O)O; Morpholide = C1CN(*)CCO1; NAllylGly = C=CCNCC(=O)O; NMeA = CN[C@@H](C)C(=O)O; NMeAib = CNC(C)(C)C(=O)O; Piperidide = C1CCN(*)CC1; Pyrrolidide = C1CCN(*)C1; Ac5c = NC1(C(=O)O)CCCC1; Aze = O=C(O)[C@@H]1CCN1; Cyclobutyl = C1CC(*)C1; Aib = CC(C)(N)C(=O)O; Sar = CNCC(=O)O; Propyl = CCC*
# Target: protein-protein interaction between Kras and SOS1 (biotin-tagged human Kras loaded with GDP, His-tagged human SOS1) (Homo sapiens (Human), UniProt P01116, G12D)
# Assay: Protein-protein interaction inhibition between Kras and SOS1 (KrasG12D-SOS PPI) using AlphaScreen;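 note: kras produced in E. coli, Ni-coupled donor beads and streptavidin acceptor beads, excitation 680 nm with emission detected at 520–620 nm via singlet oxygen transfer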
# Type: biochemical
# Conditions: AlphaScreen; biotin-tagged human Kras loaded with GDP, His-tagged human SOS1; read-out: KRAS G12D-SOS PPI IC50
row,Compound,IC50
1,CC[C@H](C)[C@@H]1NC(=O)[C@H](CC(C)C)N(C)C(=O)C[C@@H](C(=O)N2CCCCC2)N(C)C(=O)[C@H]([C@@H](C)CC)N(C)C(=O)C2(CCCC2)NC(=O)[C@@H]2CCCN2C(=O)[C@H](CCc2ccc(C(F)(F)F)c(Cl)c2)NC(=O)CN(C)C(=O)[C@H](C2CCCC2)N(C)C(=O)[C@@H]2CCN2C(=O)[C@H](C)N(C)C1=O [Compound 807] ([NMeL]I[NMeA][Aze][NMeGly(cPent)][Sar][hPhe(3-Cl-4-CF3)]P[Ac5c][NMeI][NMeD]-Piperidide; lactam N-11),0.74 nM
2,"CCCOC[C@H]1C(=O)N(C)CC(=O)N[C@@H](CCc2ccc(C(F)(F)F)c(F)c2)C(=O)N2CCC[C@H]2C(=O)NC2(CCCC2)C(=O)N(C)[C@@H]([C@@H](C)CC)C(=O)N(C)[C@H](C(=O)N2CCOCC2)CC(=O)N(C)[C@@H](CC(C)C)C(=O)N[C@@H]([C@@H](C)CC)C(=O)N(C)[C@@H](C)C(=O)N2CC[C@H]2C(=O)N1C [Compound 827] ([NMeL]I[NMeA][Aze][NMeS](Propyl)[Sar][hPhe(3-F,4-CF3)]P[Ac5c][NMeI][NMeD]-Morpholide; lactam N-11)",2.8 nM
3,CC[C@H](C)[C@@H]1NC(=O)[C@H](CC(C)C)N(C)C(=O)C[C@@H](C(=O)N(C)C)N(C)C(=O)[C@H]([C@@H](C)CC)N(C)C(=O)CNC(=O)[C@@H]2CCCN2C(=O)[C@H](CCc2ccc(C(F)(F)F)c(Cl)c2)NC(=O)CN(C)C(=O)[C@H](Cc2ccc(C)cc2)N(C)C(=O)[C@@H]2CCN2C(=O)[C@H](C)N(C)C1=O [Compound 828] ([NMeL]I[NMeA][Aze][NMePhe(4-Me)][Sar][hPhe(3-Cl-4-CF3)]PG[NMeI][NMeD]-NMe2; lactam N-11),40 nM
4,"CC[C@H](C)[C@@H]1NC(=O)[C@H](CC(C)C)N(C)C(=O)CCN(C)C(=O)[C@H](CC(C)C)NC(=O)C(C)(C)N(C)C(=O)[C@H](CC(C)C)NC(=O)[C@H](CCc2ccc(C(F)(F)F)c(F)c2)NC(=O)CN(C)C(=O)[C@H](CC2CCCCC2)N(C)C(=O)CN(C)C(=O)CN(C)C1=O [Compound 832] (cyclo(I[Sar][Sar][NMeCha][Sar][hPhe(3-F,4-CF3)]L[NMeAib]L[NMeβAla][NMeL]))",120 nM
5,CC[C@H](C)[C@@H]1NC(=O)[C@H](CC(C)C)N(C)C(=O)C[C@@H](C)NC(=O)[C@H](CC(C)C)N(C)C(=O)C(C)(C)NC(=O)[C@H](CC(C)C)N(C)C(=O)[C@H](CCc2ccc(C(F)(F)F)cc2)NC(=O)CN(C)C(=O)[C@H](CC2CCCCC2)N(C)C(=O)CN(C)C(=O)CN(C)C1=O [Compound 839] (cyclo([Aib][NMeL][d(β3hA)][NMeL]I[Sar][Sar][NMeCha][Sar][hPhe(4-CF3)][NMeL])),220 nM
6,CC[C@H](C)[C@@H]1NC(=O)[C@H](CC(C)C)N(C)C(=O)C[C@@H](C)NC(=O)[C@H](CC(C)C)N(C)C(=O)C2(CCCC2)NC(=O)[C@H](CC(C)C)N(C)C(=O)[C@H](CCc2ccc(C(F)(F)F)cc2)NC(=O)CN(C)C(=O)[C@H](Cc2ccc(Cl)cc2)N(C)C(=O)CN(C)C(=O)CN(C)C1=O [Compound 843] (cyclo([Ac5c][NMeL][d(β3hA)][NMeL]I[Sar][Sar][NMePhe(4-Cl)][Sar][hPhe(4-CF3)][NMeL])),49 nM
7,CCCOC[C@H]1C(=O)N2CC[C@H]2C(=O)N(C)[C@@H](CC2CCCCC2)C(=O)N(C)CC(=O)N[C@@H](CCc2ccc(C(F)(F)F)c(Cl)c2)C(=O)N2CCC[C@H]2C(=O)NC2(CCCC2)C(=O)N(C)[C@@H](C(C)C)C(=O)N[C@H](C)CC(=O)N(C)[C@@H](CC(C)C)C(=O)N[C@@H]([C@@H](C)CC)C(=O)N1C [Compound 852] (cyclo([Ac5c][NMeV][d(β3hA)][NMeL]I[NMeS](Propyl)[Aze][NMeCha][Sar][hPhe(3-Cl-4-CF3)]P)),190 nM
8,"CC[C@H](C)[C@@H]1NC(=O)[C@H](CC(C)C)N(C)C(=O)C[C@@H](C)N(C)C(=O)[C@H]([C@@H](C)CC)N(C)C(=O)C2(CCCC2)NC(=O)[C@@H]2CCCN2C(=O)[C@H](CCc2ccc(C(F)(F)F)c(F)c2)NC(=O)CN(C)C(=O)[C@H](CC2CCCCC2)N(C)C(=O)[C@@H]2CCN2C(=O)[C@H](C)N(C)C1=O [Compound 859] (cyclo([Ac5c][NMeI][NMedβ3hAla][NMeL]I[NMeA][Aze][NMeCha][Sar][hPhe(3-F,4-CF3)]P))",64 nM
9,CC[C@H](C)[C@@H]1NC(=O)[C@H](C)N(C)C(=O)C[C@@H](C(=O)N2CCCCC2)N(C)C(=O)[C@H](C(C)C)N(C)C(=O)C2(CCCC2)NC(=O)[C@@H]2CCCN2C(=O)[C@H](CCc2ccc(F)cc2)NC(=O)CN(C)C(=O)[C@H](CC2CCCCC2)N(C)C(=O)[C@@H]2CCN2C(=O)[C@H](C)N(C)C1=O [Compound 860] ([NMeA]I[NMeA][Aze][NMeCha][Sar][hPhe(4-F)]P[Ac5c][NMeV][NMeD]-Piperidide; lactam N-11),210 nM
10,"CC[C@H](C)[C@@H]1NC(=O)[C@H](CC(C)C)N(C)C(=O)C[C@@H](C(=O)N2CCCC2)N(C)C(=O)[C@H]([C@@H](C)CC)N(C)C(=O)C2(CCCC2)NC(=O)[C@@H]2CCCN2C(=O)[C@H](CCc2ccc(C(F)(F)F)c(F)c2)NC(=O)CN(C)C(=O)[C@H](CC2CCCCC2)N(C)C(=O)[C@@H]2CCN2C(=O)[C@H](C)N(C)C1=O [Compound 868] ([NMeL]I[NMeA][Aze][NMeCha][Sar][hPhe(3-F,4-CF3)]P[Ac5c][NMeI][NMeD]-Pyrrolidide; lactam N-11)",2.9 nM
11,"CCOCCN1CC(=O)NC2(CCCC2)C(=O)N(C)[C@@H](C2CCCCC2)C(=O)N(C)[C@H](C(=O)N2CCCCC2)CC(=O)N(C)[C@@H](CC(C)C)C(=O)N[C@@H]([C@@H](C)CC)C(=O)N(C)CC(=O)N(C)CC(=O)N(C)[C@@H](CC2CCCCC2)C(=O)N(C)CC(=O)N[C@@H](CCc2ccc(C(F)(F)F)c(Cl)c2)C1=O [Compound 872, (11S,17S,26S,29S,33S,36S)-11-[2-[3-chloro-4-(trifluoromethyl)phenyl]ethyl]-36-cyclohexyl-17-(cyclohexylmethyl)-9-(2-ethoxyethyl)-29-isobutyl-15,18,21,24,30,34,37-heptamethyl-26-[(1S)-1-methylpropyl]-33-(piperidine-1-carbonyl)-6,9,12,15,18,21,24,27,30,34,37-undecazaspiro[4.33]octatriacontane-7,10,13,16,19,22,25,28,31,35,38-undecone] ([NMeL]I[Sar][Sar][NMeCha][Sar][hPhe(3-Cl-4-CF3)][Gly(N-(CH2)2OEt)][Ac5c][NMeChg][NMeD]-Piperidide; lactam N-11)",1.9 nM
12,CC[C@H](C)[C@@H]1NC(=O)[C@H](C2CCCCC2)N(C)C(=O)C[C@@H](C)NC(=O)[C@H](C(C)C)N(C)C(=O)C2(CCCC2)NC(=O)[C@@H]2CCCN2C(=O)[C@H](CCc2ccc(C(F)(F)F)c(Cl)c2)NC(=O)CN(C)C(=O)[C@H](CC2CCCCC2)N(C)C(=O)[C@@H]2CCN2C(=O)[C@H](C)N(C)C1=O [Compound 873] (cyclo([Ac5c][NMeV][d(β3hA)][NMeChg]I[NMeA][Aze][NMeCha][Sar][hPhe(3-Cl-4-CF3)]P)),51 nM
13,CC[C@H](C)[C@@H]1NC(=O)[C@H](CC(C)C)N(C)C(=O)C[C@@H](C(=O)N2CCCCC2)N(C)C(=O)[C@H]([C@@H](C)CC)N(C)C(=O)C2(CCCC2)NC(=O)[C@@H]2CCCN2C(=O)[C@H](CCc2ccc(C(F)(F)F)c(Cl)c2)NC(=O)CN(C)C(=O)[C@H](COC2CCC2)N(C)C(=O)[C@@H]2CCN2C(=O)[C@H](C)N(C)C1=O [Compound 885] ([NMeL]I[NMeA][Aze][NMeS](Cyclobutyl)[Sar][hPhe(3-Cl-4-CF3)]P[Ac5c][NMeI][NMeD]-Piperidide; lactam N-11),1.9 nM
14,CC[C@H](C)[C@@H]1NC(=O)[C@H](CC(C)C)N(C)C(=O)C[C@@H](C)N(C)C(=O)[C@H]([C@@H](C)CC)N(C)C(=O)C2(CCCC2)NC(=O)[C@@H]2CCCN2C(=O)[C@H](CCc2ccc(C(F)(F)F)c(Cl)c2)NC(=O)CN(C)C(=O)[C@H](Cc2ccc(C(F)(F)F)cc2)N(CC)C(=O)[C@@H]2CCN2C(=O)[C@H](C)N(C)C1=O [Compound 898] (cyclo([Ac5c][NMeI][NMedβ3hAla][NMeL]I[NMeA][Aze][NEtPhe(4-CF3)][Sar][hPhe(3-Cl-4-CF3)]P)),12 nM
15,C=CCN1CC(=O)NC2(CCCC2)C(=O)N(C)[C@@H](C2CCCCC2)C(=O)N(C)[C@H](C(=O)N2CCCCC2)CC(=O)N(C)[C@@H](CC(C)C)C(=O)N[C@@H]([C@@H](C)CC)C(=O)N(C)CC(=O)N(C)CC(=O)N(C)[C@@H](CC2CCCCC2)C(=O)N(C)CC(=O)N[C@@H](CCc2ccc(C(F)(F)F)c(Cl)c2)C1=O [Compound 899] ([NMeL]I[Sar][Sar][NMeCha][Sar][hPhe(3-Cl-4-CF3)][NAllylGly][Ac5c][NMeChg][NMeD]-Piperidide; lactam N-11 (inferred); C-terminus assumed),1.9 nM
16,"CC[C@H](C)[C@@H]1NC(=O)[C@H](CC(C)C)N(C)C(=O)C[C@@H](C)N(C)C(=O)[C@H](C2CCCC2)N(C)C(=O)C2(CCCC2)NC(=O)[C@@H]2CC(F)(F)CN2C(=O)[C@H](CCc2cc(F)c(C(F)(F)F)c(F)c2)NC(=O)CN(C)C(=O)[C@H](Cc2ccc(C(F)(F)F)cc2)N(C)C(=O)[C@@H]2CCN2C(=O)[C@H](C)N(C)C1=O [Compound 900] (cyclo([Ac5c][NMeGly(cPent)][NMedβ3hAla][NMeL]I[NMeA][Aze][NMePhe(4-CF3)][Sar][hPhe(3,5-F2-4-CF3)][Pro(4,4-F2)]))",0.84 nM
17,"CC[C@H](C)[C@@H]1NC(=O)[C@H](CC(C)C)N(C)C(=O)C[C@@H](C)N(C)C(=O)[C@H]([C@@H](C)CC)N(C)C(=O)C2(CCCC2)NC(=O)[C@@H]2CCCN2C(=O)[C@H](CCc2ccc(C(F)(F)F)c(F)c2)NC(=O)CN(C)C(=O)[C@H](C2CCCC2)N(C)C(=O)[C@@H]2CCN2C(=O)[C@H](C)N(C)C1=O [Compound 909] (cyclo([Ac5c][NMeI][NMedβ3hAla][NMeL]I[NMeA][Aze][NMeGly(cPent)][Sar][hPhe(3-F,4-CF3)]P))",20 nM
18,CC[C@H](C)[C@@H]1NC(=O)[C@H](CC(C)C)N(C)C(=O)C[C@@H](C(=O)N2CCCCC2)N(C)C(=O)[C@H](C(C)C)N(C)C(=O)C2(CCCC2)NC(=O)[C@@H]2CCCN2C(=O)[C@H](CCc2ccc(Cl)cc2)NC(=O)CN(C)C(=O)[C@H](CC2CCCCC2)N(C)C(=O)[C@@H]2CCN2C(=O)CN(C)C1=O [Compound 916] ([NMeL]I[Sar][Aze][NMeCha][Sar][hPhe(4-Cl)]P[Ac5c][NMeV][NMeD]-Piperidide; lactam N-11),42 nM
